From patent US11401303B2, “Synthetic peptide BRAP and application in preparation of anti-inflammatory drug for COVID-19 thereof” (TAIAN CITY QIHANG BIOTECHNOLOGY CO., priority 2020, dated 2022)
Entries after “also recorded” stand apart in the source; their conditions may differ. Ends that are not written are not given here.

Tests used:
[1] = system: LPS-induced acute lung injury; experiment: LPS-induced acute lung injury in mice, HE pathological examination of lung tissues; type: in vivo, Balb/C mice; conditions: LPS 5 mg/kgBW i.p.
Description: 1. Grade-SPF male Balb/C mice, body weight: 20±2 g, and n=48
3. Grouping and treatment: mice were randomly divided into 8 groups (A-H), 6 pcs./group;
3-1: 3 different treatments were given for 3 consecutive days respectively before modeling:
A. normal control group: normal saline was injected via the tail vein for once/day;
B. LPS model group: normal saline was injected via the tail vein for once/day;
C. model sp2 administration group: sp2 (16 mg/kgBW) was injected via the tail vein for once/day;
D. model high-dose brap administration group: brap (16 mg/kgBW) was injected via the tail vein for once/day;
E. model medium-dose brap administration group: brap (8 mg/kgBW) was injected via the tail vein for once/day;
F. model low-dose brap administration group: brap (4 mg/kgBW) was injected via the tail vein for once/day;
G. model brap intranasal administration group: brap (3 mM) was administered nasal administration on both sides, 15 μl/each side; once a day;
H. model dexamethasone administration group (a positive control group): dexamethasone, DEX, 5 mg/kg was injected intraperitoneally for once a day.
Animals from groups A-H were continuously administered the above treatments for 30 min respectively, then group A was intraperitoneally injected isopyknic normal saline, and other groups were intraperitoneally injected LPS 5 mg/kgBW.
1. Tissue section and extending
2. Tissues were dewaxed and hydrated.
3. Tissues were dyed with a hematoxylin stain for 5-20 min (adjusted according to different tissues and experimental requirements), and washed by tap water.
4. Then, tissues were differentiated by a differentiation solution for 30 s.
5. Tissues were soaked by tap water for 15 min or warm water (about 50° C.) for 5 min.
6. Tissues were put in an Eosin stain for 2 min (adjusted according to different tissues and experimental requirements), and washed by tap water.
7. Then, the tissues were soaked by tap water for 5 min.
8. Dehydration by gradient alcohol: Tissues were dehydrated by 95%, 100% I, and 100% II for 1 min each;
9. Transparency by xylene: tissues were subjected to xylene I and II for 10 min.
10. Neutral balsam mounting.
11. Then, it was put and dried in an oven at 60° C., and observed under microscope.

IL-6 mRNA = experiment: IL6 mRNA expression in lung tissues of LPS-induced mice by qPCR; type: in vivo, Balb/C mice
Description: 1.1 Lung tissue sample: a fresh lung tissue sample from each group of mice constructed in example 9 was taken and quick-frozen by liquid nitrogen as quickly as possible, and kept at […].
2. Extraction of total RNA (a total RNA extraction kit via a paramagnetic particle method was used)
2.1 The tissue sample was cut into small pieces, and ground (50 mg) to powder via liquid nitrogen, and transferred to a 1.5 ml tube free of RNA enzyme (cell sample and other liquid samples required no grinding, and were directly put to the next step).
Using the operational method of Applied Biosystems 7300/7500/7500 Fast Real-Time PCR System and StepOnePlusTMReal-Time PCR System
1. Preparation of a PCR reaction liquid
2. Real Time PCR reaction was performed.
At the end of the reaction, an amplification curve and dissociation curve of Real Time
PCR were confirmed, and 2^−ΔΔct and the like were calculated.

[2] = system: OVA-induced allergic rhinitis; experiment: Rat allergic nasal inflammation (OVA-induced allergic rhinitis), intranasal administration; type: in vivo, SD rat; conditions: bilateral nasal cavities 50 μL/side, 4 weeks
Description: SD rat modeling: two stages of intraperitoneal injection for sensitization and intranasal dripping for stimulation. Ovalbumin was injected intraperitoneally, and 1 mg ovalbumin (V-class Sigma, USA) was dissolved in 1 ml normal saline, and 30 mg of aluminum hydroxide was added as an immunologic adjuvant. Each rat was intraperitoneally injected 1 ml ovalbumin suspension prepared above with 1 ml/time every other day and for 7 times in total; and stimulated intranasally with ovalbumin on the 15th day; 20 mg ovalbumin (V-class Sigma, USA) were dissolved in 1 ml normal saline to be prepared into a 2% solution; and the 2% ovalbumin solution was used for stimulation by nasal dripping; and 50 ul nasal drips were administered in each of the nasal cavities of each rat for 7 consecutive days.
Blank control group: 30 mg of aluminum hydroxide+1 ml of normal saline were mixed evenly, and then injected intraperitoneally; and the method was the same as the above.
Normal saline was dripped into nasal cavities on the 15th day.
After the final nasal dripping was performed, each rat was observed and evaluated according to a scoring table: Sneezing, nose scratching, gasping and nasal secretions
1. Administration way: a drug was administered with a micro-sampling gun, bilateral nasal cavities of a rat were administered with 50 μL/side, after being administered for 20 min, a 2% ovalbumin solution was administered to bilateral nasal cavities of the rat; 50 μL/side nasal dripping was administered for provocation; the above treatment was performed for 4 consecutive weeks to observe the pharmacodynamic effect.
High-dose synthetic peptide brap: a synthetic peptide brap freeze-dried powder (5 mg/bottle) was taken, and 1.63 ml sterile saline solution was added for dissolving;
medium-dose synthetic peptide brap: a synthetic peptide brap freeze-dried powder (5 mg/bottle) was taken, and 4.89 ml sterile saline solution was added for dissolving;
low-dose synthetic peptide brap: a synthetic peptide brap freeze-dried powder (5 mg/bottle) was taken, and 14.67 ml sterile saline solution was added for dissolving;

Bradykinin B1 receptor = target: T1, Bradykinin B1 receptor (Homo sapiens, UniProt P46663); type: cell-based
T1 construct: host or cells: HEK293/Gα15/B1
T1 sequence (P46663 1-353): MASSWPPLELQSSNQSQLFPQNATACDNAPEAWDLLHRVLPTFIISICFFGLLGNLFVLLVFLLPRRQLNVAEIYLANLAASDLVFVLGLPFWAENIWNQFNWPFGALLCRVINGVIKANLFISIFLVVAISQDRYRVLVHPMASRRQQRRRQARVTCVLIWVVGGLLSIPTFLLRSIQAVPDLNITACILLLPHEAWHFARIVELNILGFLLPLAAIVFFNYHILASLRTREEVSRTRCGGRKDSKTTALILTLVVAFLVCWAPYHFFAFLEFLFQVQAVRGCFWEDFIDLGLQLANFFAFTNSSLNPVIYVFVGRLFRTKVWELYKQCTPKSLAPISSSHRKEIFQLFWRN

[3] = Limit test on intravenous injection at 2000 mg/kg BW dose level; type: in vivo, Konmin mouse
Description: I. Test Animal (Subject): Konmin Mouse: Healthy, Adult, Male, Weight≤20 g, and n=5 pcs
III. Administration Route and Dose: 2000 mg/kg BW was Injected Via a Tail Vein
Administration capacity: the maximum injection capacity of the mice tail vein was 0.5 ml/once, slow injection
Dose and mode of administration: 40 mg/1.5 ml working solution was administered for 3 times within 9 h.
1) a test substance (synthetic peptide brap) having a dose of 2000 mg/kg was injected to the first Konmin mouse via tail vein;
2) whether of causing toxic responses (initial symptom, starting time, namely, time period after administration, severity and duration) was observed and recorded;
3) if the animal died, the response before being at death's door and the occurrence time of death were recorded.

Bradykinin B2 receptor = Bradykinin B2 receptor (Homo sapiens, UniProt P30411); experiment: cell-based
[4] = 2000 mg/kg BW via tail vein in 3 injections, individual mouse

Bradykinin B2 receptor, sequence (P30411 whole entry): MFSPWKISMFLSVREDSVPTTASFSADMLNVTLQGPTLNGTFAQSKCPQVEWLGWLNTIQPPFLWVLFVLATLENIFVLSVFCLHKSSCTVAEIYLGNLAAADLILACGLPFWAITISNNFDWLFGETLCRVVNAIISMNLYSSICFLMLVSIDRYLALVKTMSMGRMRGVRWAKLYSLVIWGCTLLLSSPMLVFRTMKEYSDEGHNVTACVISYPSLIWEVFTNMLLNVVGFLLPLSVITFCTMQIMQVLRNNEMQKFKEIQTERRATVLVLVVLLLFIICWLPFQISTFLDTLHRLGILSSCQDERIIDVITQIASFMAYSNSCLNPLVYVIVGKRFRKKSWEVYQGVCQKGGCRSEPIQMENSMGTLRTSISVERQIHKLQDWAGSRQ

Sequence: RVLNGPEAPA [brap]
- Lung tissue pathology (HE) ([1]; 16 mg/kgBW via tail vein once/day): No abnormality; also recorded: no thickened pulmonary septum and no obvious inflammatory cell infiltration
- Lung tissue pathology (HE) ([1]; intranasal 3 mM, 15 μl/each side once a day): no obvious abnormality
- Lung tissue pathology (HE) ([1]; medium and low dose, 8 and 4 mg/kgBW via tail vein once/day): inflammatory cell infiltration begins to appear
- IL-6 mRNA overexpression in lung tissues (IL-6 mRNA; intranasal administration): obviously decrease the overexpression
- IL-6 mRNA overexpression in lung tissues (IL-6 mRNA; intravenous injection): obviously decrease the overexpression
- Scoring change before and after treatment ([2]; all dose groups of the peptide, continued OVA provocation): decreases
- Allergic rhinitis symptom scoring compared with the model group ([2]; high, medium and low dose, significant difference): can improve the OVA-induced allergic rhinitis symptoms
- Effect of compound acting together with EC10 and EC20 (Bradykinin B1 receptor): no obvious effect
- Inhibitory activity on B1 receptor activation by EC80 irritant (Bradykinin B1 receptor): obviously inhibited
- Death situation/survival animals, 72 h after administering [3, 4]: No death
- Toxic response manifestation [3, 4]: No abnormal
- Toxicity in the limit test ([3]; intravenous injection of 2000 mg/kg BW, mice n=5): no toxicity was found
- LD50 at 9 h ([3]; male, Konmin, in vivo, 2000 mg/kg BW, intravenous, mouse, judgment rule if survival animals ≥3 (5 of 5 survived)): > 2000 mg/kg
- IC50 (Bradykinin B2 receptor): ~1000 µM
